One assay relates to L1210 leukemia (ip). The assay is described as follows: Antileukemic screen, L1210 tumour ip, drug ip qd 1-5. The format is in vivo, mice (C3H/DBA2 F1 hybrids). The conditions noted are these: L1210-ip, qd 1-5; Table IV. The text has this: In initial screening a standard drug administration schedule has been employed (ip, qd 1-5) and mice (C3 H/DBA2 F1 hybrids) bred in the laboratory, receive a standard tumor inoculum of 10^5 L1210 cells ip on day 0. After range finding experiments, an LD10 dose has then been derived employing doses separated by 0.05 log.dose units, an acceptable soluble drug formulation (B. F. Cain, R. N. Seelye and G. J. Atwell, J. Med. Chem., 17, 922-930 (1974)) and groups of six tumored mice at each dose level. Deaths occuring before day 8 have been taken as resulting from drug toxicity. From the linear regression relating percent probit-mortality and the logarithms of the corresponding doses, an LD10 value has been derived. Profiles of antileukemic activity have been obtained employing doses separated by 0.09 log.dose intervals. Significant percentage increases in life span of leukemic animals, obtained at and below the LD10 dose, have been linearly correlated with the logarithms of the corresponding doses. The increase in life span (ILS) specified by the life extension-log.dose regression line at the measured LD10 provides a representative measure of antileukemic effectiveness at a standard host load in toxicity (W. A. Denny and B. F. Cain, J. Med. Chem., 21, 430-437 (1978)). For congener selection ILS has been employed as a measure of factor (1) above and LD10 for factor (2). Desirable drug pharmacokinetic properties (factor (3)) have been screened for by employing standard ip drug administration and implanting tumor more remotely; either subcutaneously (sc) or intracerabrally (ic) (B. F. Cain and G. J. Atwell Europ J. Cancer, 10, 539 549 (1974), B. F. Cain and G. J. Atwell, J. Med. Chem., 19 1409-1416 (1976)).
ILS and LD10=as defined above.
D40=the drug dose necessary to provide 40% ILS in standard L1210 assays.
Turning to `COc1cc(NS(C)(=O)=O)ccc1Nc1c2ccccc2nc2cc(Br)c(N)cc12` [Compound C1], the “ILS Observed” value stood at 90%. Same read-out and setting: the figure for `COc1cc(NS(C)(=O)=O)ccc1Nc1c2ccccc2nc2cc(C(F)(F)F)c(N)cc12` [Compound C2] is 108%. For the compound `COc1cc(NS(C)(=O)=O)ccc1Nc1c2ccccc2nc2c(C)c([N+](=O)[O-])ccc12` [Compound C3], the “ILS Observed” value turned out to be 54%. The same measure, in the same setting: the figure for `COc1cc(NS(C)(=O)=O)ccc1Nc1c2ccccc2nc2c(C)c(C)ccc12` [Compound C4] is 79%; for `COc1cc(NS(C)(=O)=O)ccc1Nc1c2ccc([N+](=O)[O-])cc2nc2c(C)cccc12` [Compound C5] it is 107%. Consider `COc1cc(NS(C)(=O)=O)ccc1Nc1c2ccc([N+](=O)[O-])cc2nc2c(OC)cccc12` [Compound C6], for which the “ILS Observed” value is recorded as 66%. Same read-out and setting: the figure for `COc1cc(NS(C)(=O)=O)ccc1Nc1c2ccc(N)cc2nc2c(C)cccc12` [Compound C7] is 125%. On to `COc1cc(NS(C)(=O)=O)ccc1Nc1c2ccc(I)cc2nc2c(C)cccc12` [Compound C8], for which the “ILS Observed” value is recorded as 86%. Still for that read-out and setting: then `COc1cc(NS(C)(=O)=O)ccc1Nc1c2ccc(I)cc2nc2c(OC)cccc12` [Compound C9], with 63%; and `CNc1ccc2c(Nc3ccc(NS(C)(=O)=O)cc3OC)c3cccc(C)c3nc2c1` [Compound C10], with 68%. The same measure, in the same setting: then `COc1cc(NS(C)(=O)=O)ccc1Nc1c2ccc(Cl)cc2nc2c(C)cccc12` [Compound C11], with 57%; and `COc1cc(NS(C)(=O)=O)ccc1Nc1c2ccc(Cl)cc2nc2c(OC)cccc12` [Compound C12], with 82%; and `COc1cc(NS(C)(=O)=O)ccc1Nc1c2ccc(C)cc2nc2c(C)cccc12` [Compound C13], with 97%. The same measure, in the same setting: then `COc1cc(NS(C)(=O)=O)ccc1Nc1c2ccc(C)cc2nc2c(C(N)=O)cccc12` [Compound C14], with 100%; and `COc1cc(NS(C)(=O)=O)ccc1Nc1c2ccc(Cl)cc2nc2c(C(N)=O)cccc12` [Compound C15], with 90%. On to `COc1cc(NS(C)(=O)=O)ccc1Nc1c2ccc([N+](=O)[O-])cc2nc2c(C(N)=O)cccc12` [Compound C16], for which the “ILS Observed” value was found to be 100%.

In the case of `COc1cc(NS(C)(=O)=O)ccc1Nc1c2ccc(C(N)=O)cc2nc2c(C)cccc12` [Compound C17], the “ILS Observed” value is given as 150%.

In the case of `COc1cc(NS(C)(=O)=O)ccc1Nc1c2ccc(C(N)=O)cc2nc2c(OC)cccc12` [Compound C18], the “ILS Observed” value is reported as 70%. Same read-out and setting: the figure for `COc1cc(NS(C)(=O)=O)ccc1Nc1c2ccc(Cl)cc2nc2cc(Cl)ccc12` [Compound C19] is 52%. Still for that read-out and setting: the figure for `COc1cc(NS(C)(=O)=O)ccc1Nc1c2ccc(Cl)cc2nc2cc(C(F)(F)F)ccc12` [Compound C20] is 5%; for `COc1cc(NS(C)(=O)=O)ccc1Nc1c2ccc(Br)cc2nc2cc(Br)ccc12` [Compound C21] it is 82%; for `COc1cc(NS(C)(=O)=O)ccc1Nc1c2ccc(C)cc2nc2cc([N+](=O)[O-])ccc12` [Compound C22] it is 91%.

`COc1cc(NS(C)(=O)=O)ccc1Nc1c2ccc([N+](=O)[O-])cc2nc2cc([N+](=O)[O-])ccc12` [Compound C23]: the “ILS Observed” value was determined as 58%. On the same count and under the same terms, then `COc1cc(NS(C)(=O)=O)ccc1Nc1c2cccc(C)c2nc2c(C)cccc12` [Compound C24], with 87%; and `COc1cc(NS(C)(=O)=O)ccc1Nc1c2ccccc2nc2c(C)c(C)c(N)cc12` [Compound C25], with 61%. On the same count and under the same terms, then `COc1cc(NS(C)(=O)=O)ccc1Nc1c2cc(N)c(Br)cc2nc2c(C)cccc12` [Compound C26], with 83%.

For `COc1cc(NS(C)(=O)=O)ccc1Nc1c2cccc(C)c2nc2c(C)c([N+](=O)[O-])ccc12` [Compound C27], the “ILS Observed” value is listed as 28%. On the same count and under the same terms, then `COc1cc(NS(C)(=O)=O)ccc1Nc1c2cccc(C)c2nc2c(C)c(C)ccc12` [Compound C28], with 76%; and `COc1cc(NS(C)(=O)=O)ccc1Nc1c2ccc(C)cc2nc2c(C)c(C)ccc12` [Compound C29], with 58%. Still for that read-out and setting: the figure for `COc1cc(NS(C)(=O)=O)ccc1Nc1c2ccc([N+](=O)[O-])cc2nc2c(C)c(C)ccc12` [Compound C30] is 92%. Still for that read-out and setting: then `COc1cc(NS(C)(=O)=O)ccc1Nc1c2ccc(N)cc2nc2c(C)c(C)ccc12` [Compound C31], with 79%; and `CNc1ccc2c(Nc3ccc(NS(C)(=O)=O)cc3OC)c3ccc(C)c(C)c3nc2c1` [Compound C32], with 64%.

The assay is the same for the next values; noted with them: in words.
As for `COc1cc(NS(C)(=O)=O)ccc1Nc1c2ccccc2nc2cc(C(F)(F)F)c(N)cc12` [Compound C2], the “Observed ILS compared with predicted ILS” value was “observed ILS values greater than their predicted ILS values”. On the same count and under the same terms, then `COc1cc(NS(C)(=O)=O)ccc1Nc1c2ccc([N+](=O)[O-])cc2nc2c(C)cccc12` [Compound C5], with “observed ILS values greater than their predicted ILS values”; and `COc1cc(NS(C)(=O)=O)ccc1Nc1c2ccc(N)cc2nc2c(C)cccc12` [Compound C7], with “observed ILS values greater than their predicted ILS values”. On the same count and under the same terms, then `COc1cc(NS(C)(=O)=O)ccc1Nc1c2ccc([N+](=O)[O-])cc2nc2c(C(N)=O)cccc12` [Compound C16], with “observed ILS values greater than their predicted ILS values”; and `COc1cc(NS(C)(=O)=O)ccc1Nc1c2ccc(C(N)=O)cc2nc2c(C)cccc12` [Compound C17], with “observed ILS values greater than their predicted ILS values”; and `COc1cc(NS(C)(=O)=O)ccc1Nc1c2ccc(C)cc2nc2cc([N+](=O)[O-])ccc12` [Compound C22], with “observed ILS values greater than their predicted ILS values”.

The assay is the same for the next values; noted with them: monosubstituted m-AMSA; Table V.
Regarding `COc1cc(NS(C)(=O)=O)ccc1Nc1c2ccccc2nc2ccc(N)cc12` [Compound M1], the “ILS Observed” value turned out to be 106%.

In the case of `COc1cc(NS(C)(=O)=O)ccc1Nc1c2ccccc2nc2cc(C)ccc12` [Compound M2], the “ILS Observed” value was found to be 88%. Same read-out and setting: the figure for `COc1cc(NS(C)(=O)=O)ccc1Nc1c2ccccc2nc2cc(C(N)=O)ccc12` [Compound M3] is 150%; for `CNC(=O)c1ccc2c(Nc3ccc(NS(C)(=O)=O)cc3OC)c3ccccc3nc2c1` [Compound M4] it is 92%; for `COc1cc(NS(C)(=O)=O)ccc1Nc1c2ccccc2nc2cc(Cl)ccc12` [Compound M5] it is 72%. Take `COc1cc(NS(C)(=O)=O)ccc1Nc1c2ccccc2nc2cc(Br)ccc12` [Compound M6]: the “ILS Observed” value worked out at 119%. On the same count and under the same terms, the figure for `COc1cc(NS(C)(=O)=O)ccc1Nc1c2ccccc2nc2cc(I)ccc12` [Compound M7] is 98%; for `COc1cc(NS(C)(=O)=O)ccc1Nc1c2ccccc2nc2cc(C(F)(F)F)ccc12` [Compound M8] it is 63%. On the same count and under the same terms, the figure for `COc1cc(NS(C)(=O)=O)ccc1Nc1c2ccccc2nc2cc(N)ccc12` [Compound M9] is 82%; for `CNc1ccc2c(Nc3ccc(NS(C)(=O)=O)cc3OC)c3ccccc3nc2c1` [Compound M10] it is 94%.

For `COc1cc(NS(C)(=O)=O)ccc1Nc1c2ccccc2nc2cc([N+](=O)[O-])ccc12` [Compound M11], the “ILS Observed” value amounted to 84%.

On to `COc1cc(NS(C)(=O)=O)ccc1Nc1c2ccccc2nc2c(C)cccc12` [Compound M12], for which the “ILS Observed” value is 111%. As to `COc1cc(NS(C)(=O)=O)ccc1Nc1c2ccccc2nc2c(C(N)=O)cccc12` [Compound M13], the “ILS Observed” value was 112%. The same measure, in the same setting: the figure for `CNC(=O)c1cccc2c(Nc3ccc(NS(C)(=O)=O)cc3OC)c3ccccc3nc12` [Compound M14] is 135%; for `COc1cc(NS(C)(=O)=O)ccc1Nc1c2ccccc2nc2c(C(=O)NCC(N)=O)cccc12` [Compound M15] it is 98%; for `COc1cc(NS(C)(=O)=O)ccc1Nc1c2ccccc2nc2c(OC)cccc12` [Compound M16] it is 110%.

The values above are taken from patent publication US4472582A, “3,5-Disubstituted-4'-(9-acridinylamino)-methane-sulfon-m-anisidide compounds having antitumor properties” (Development Finance Corporation of New Zealand, priority 1979, dated 1984).
